{
  "source": "patent US6025333A",
  "about": "“Treatment of CNS tumors with metalloprotease inhibitors” (Erziehungsdirektion of the Canton Zurich, priority 1995, dated 2000)",
  "molecules": {"B1": {"name": "2-macroglobulin: general protease inhibitor (protein, UniProt P01023 24-1474, looked up)", "Alpha-2-macroglobulin": "SVSGKPQYMVLVPSLLHTETTEKGCVLLSYLNETVTVSASLESVRGNRSLFTDLEAENDVLHCVAFAVPKSSSNEEVMFLTVQVKGPTQEFKKRTTVMVKNEDSLVFVQTDKSIYKPGQTVKFRVVSMDENFHPLNELIPLVYIQDPKGNRIAQWQSFQLEGGLKQFSFPLSSEPFQGSYKVVVQKKSGGRTEHPFTVEEFVLPKFEVQVTVPKIITILEEEMNVSVCGLYTYGKPVPGHVTVSICRKYSDASDCHGEDSQAFCEKFSGQLNSHGCFYQQVKTKVFQLKRKEYEMKLHTEAQIQEEGTVVELTGRQSSEITRTITKLSFVKVDSHFRQGIPFFGQVRLVDGKGVPIPNKVIFIRGNEANYYSNATTDEHGLVQFSINTTNVMGTSLTVRVNYKDRSPCYGYQWVSEEHEEAHHTAYLVFSPSKSFVHLEPMSHELPCGHTQTVQAHYILNGGTLLGLKKLSFYYLIMAKGGIVRTGTHGLLVKQEDMKGHFSISIPVKSDIAPVARLLIYAVLPTGDVIGDSAKYDVENCLANKVDLSFSPSQSLPASHAHLRVTAAPQSVCALRAVDQSVLLMKPDAELSASSVYNLLPEKDLTGFPGPLNDQDNEDCINRHNVYINGITYTPVSSTNEKDMYSFLEDMGLKAFTNSKIRKPKMCPQLQQYEMHGPEGLRVGFYESDVMGRGHARLVHVEEPHTETVRKYFPETWIWDLVVVNSAGVAEVGVTVPDTITEWKAGAFCLSEDAGLGISSTASLRAFQPFFVELTMPYSVIRGEAFTLKATVLNYLPKCIRVSVQLEASPAFLAVPVEKEQAPHCICANGRQTVSWAVTPKSLGNVNFTVSAEALESQELCGTEVPSVPEHGRKDTVIKPLLVEPEGLEKETTFNSLLCPSGGEVSEELSLKLPPNVVEESARASVSVLGDILGSAMQNTQNLLQMPYGCGEQNMVLFAPNIYVLDYLNETQQLTPEIKSKAIGYLNTGYQRQLNYKHYDGSYSTFGERYGRNQGNTWLTAFVLKTFAQARAYIFIDEAHITQALIWLSQRQKDNGCFRSSGSLLNNAIKGGVEDEVTLSAYITIALLEIPLTVTHPVVRNALFCLESAWKTAQEGDHGSHVYTKALLAYAFALAGNQDKRKEVLKSLNEEAVKKDNSVHWERPQKPKAPVGHFYEPQAPSAEVEMTSYVLLAYLTAQPAPTSEDLTSATNIVKWITKQQNAQGGFSSTQDTVVALHALSKYGAATFTRTGKAAQVTIQSSGTFSSKFQVDNNNRLLLQQVSLPELPGEYSMKVTGEGCVYLQTSLKYNILPEKEEFPFALGVQTLPQTCDEPKAHTSFQISLSVSYTGSRSASNMAIVDVKMVSGFIPLKPTVKMLERSNHVSRTEVSSNHVLIYLDKVSNQTLSLFFTVLQDVPVRDLKPAIVKVYDYYETDEFAIAEYNAPCSKDLGNA"}},
  "key": {"C6 cells": {"test_system": "C6 cells", "assay": "C6 cell spreading on PLYS or CNS myelin with protease inhibitors", "type": "cell-based, rat", "details": "for effect on C6 cell spreading on CNS myelin: Table X; for Spreading on: PLYS (% of control on PLYS) / Spreading on: CNS (% of control on PLYS) / activity at 300 µM: 150 minutes; for activity at 300 µM / inhibition at 300 µM: Rattus norvegicus; for activity at 300 µM: C6, 2.5 h; for inhibition at 300 µM: C6", "method": "Rat C6, mouse NIH 3T3 and B16 cells were cultured in Dulbecco's modified Eagle's medium (DMEM) supplemented with 10% fetal calf serum (FCS), usually to maximally 70-80% confluency. Cells were harvested with a short trypsin treatment (0.1% in Ca^2+ /Mg^2+ -free Hank's medium for 90 seconds) stopped by addition of FCS in excess, collected by centrifugation. Cells were resuspended in either DMEM/FCS or defined serum-free medium (MEM) and used for experiments. Dissociated rat CNS glial cells were prepared starting from optic nerves of 6-7 days old Lewis rats as described in Section 6.1.1, supra and plated into poly-D-lysine (PLYS) coated wells (100 mm^2, 100 μl medium) at a density of 20,000 cells per well. The culture medium was an enriched L15 medium with 5% rat serum, penicillin and streptomycin. C6, 3T3 and B16 cells were added to 2 day old cultures at a concentration of 30,000 cells per well, incubated for two hours and fixed with warm 4% formalin in phosphate buffer. Inhibitory oligodendrocytes were identified by double labelling using the specific antibodies O1 and O4 (see Section 6.1.3, supra).\n(§1) Myelin from rat spinal cord (CNS) or sciatic nerve (PNS) purified on a discontinuous sucrose gradient as described in Section 6.1.5., was dried overnight onto PLYS coated wells (20 μg protein/well of 100 mm^2 surface). Unbound membranes were removed by three washes with Ca^2+ /Mg^2+ -free Hank's solution. Myelin coated wells were immediately used in substrate testing assays by the addition of 9,000 cells (C6, 3T3, or B16) per cm^2. Alternatively, we used extracted CNS myelin protein, or SDS-PAGE purified 35 and 250 kD inhibitory proteins reconstituted in liposomes (see Section 7.1.5, supra). Experiments were scored at different time points using a phase contrast microscope equipped with a photocamera. Quantifications were done using a surface integration program; three arbitrary fields were photographed for each well at a magnitude of 80×, at least 25 cells per picture were measured. Each point represents the mean of at least 3 wells±SEM. Results are expressed as μ^2 of projected cell surface, or as degree, which was calculated by subtracting from the projected surface value of a spreading cell, the surface value of a completely spheric cell."}, "3T3 cells": {"test_system": "3T3 cells", "assay": "Treatment of CNS myelin with C6 plasma membranes, then 3T3 spreading and 3H-thymidine incorporation", "type": "cell-based, mouse", "details": "blockers added to C6 plasma membranes", "method": "as §1\nC6 cells grown to 80% confluency were washed twice with Hank's medium, and harvested in 20 ml 8.5% sucrose, 50 mM NaCl, 10 mM Tris buffer, pH 7.4, using a rubber policeman. After mechanical homogenization through a series of needles of decreasing size, a low purity plasma membrane fraction was obtained by centrifugation (5 minutes at 3000× g, 10 minutes at 8000× g, and then 2 hours at 100,000× g). A higher purity fraction was isolated by loading the material on a discontinuous sucrose gradient, containing 50 mM NaCl, 10 mM Tris, pH 7.4 (Quigley, 1976, J. Cell Biol. 71: 472-486). 20-40% sucrose interphase (C6 plasma membranes fraction) and 40-60% sucrose interphase (C6 mitochondrial fraction) were collected, washed in Hank's medium and resuspended in MEM.\nCNS myelin coated PLYS wells were prepared as described in the previous section, but instead of being immediately tested as substrate, they were first incubated with 50 μl of C6 plasma membranes (containing 0.8 mg protein/ml MEM) at 37° for 30 minutes. Dishes were then rinsed twice with Hank's medium and immediately used as substrates for 3T3 cells. In some experiments, protease blockers were added to the membranes using 10 times concentrated solutions."}, "[1]": {"details": "inhibitor 1.0 mM, PLYS value minus CNS myelin value"}, "[2]": {"details": "inhibitor 0.3 mM, PLYS value minus CNS myelin value"}, "[3]": {"details": "inhibitor 0.3 mM, CNS myelin, read-out: Spreading on: CNS (% of control on PLYS)"}},
  "note": "Like-named read-outs stand apart in the source and are kept apart here. Square brackets hold non-standard residues; d marks the D form. Peptide text beside a SMILES is read from it. * marks the point of attachment. Sta = CC(C)C[C@H](N)[C@@H](O)CC(=O)O; Isovaleryl = CC(C)CC(=O)*; Cbz = O=C(OCc1ccccc1)*",
  "data": [
    {"molecule": "CC(C)C[C@H](NC(=O)[C@H](Cc1ccccc1)NCC(=O)O)C(=O)O", "note": "[cm-phe-leu, Carboxymethyl-phe-leu]", "values": [
      {"measurement": "effect on C6 cell spreading on CNS myelin", "setting": "C6 cells", "value": "did not inhibit C6 cell spreading"},
      {"measurement": "Spreading on: PLYS (% of control on PLYS)", "setting": "C6 cells; inhibitor 0.5 mM", "value": "95 % of control on PLYS"},
      {"measurement": "Spreading on: CNS (% of control on PLYS)", "setting": "C6 cells; inhibitor 0.5 mM, CNS myelin", "value": "92 % of control on PLYS"},
      {"measurement": "Inhibition on CNS (%)", "setting": "C6 cells; inhibitor 0.5 mM, PLYS value minus CNS myelin value", "value": 3, "unit": "%"}
    ]},
    {"molecule": "O=S(=O)(F)Cc1ccccc1", "note": "[PMSF, Phenyl methyl sulfonyl fluoride]", "values": [
      {"measurement": "Spreading on: PLYS (% of control on PLYS)", "setting": "C6 cells; inhibitor 4.0 mM", "value": "100 % of control on PLYS"},
      {"measurement": "Spreading on: CNS (% of control on PLYS)", "setting": "C6 cells; inhibitor 4.0 mM, CNS myelin", "value": "94 % of control on PLYS"},
      {"measurement": "Inhibition on CNS (%)", "setting": "C6 cells; inhibitor 4.0 mM, PLYS value minus CNS myelin value", "value": 6, "unit": "%"}
    ]},
    {"molecule": "carbobenzoxy-glycine-phenylalanine-amide [cbz-gly-phe-NH2]", "values": [
      {"measurement": "inhibition of C6 cell spreading on CNS myelin", "setting": "C6 cells", "value": 55, "unit": "%"},
      {"measurement": "Spreading on: PLYS (% of control on PLYS)", "setting": "C6 cells; inhibitor 1.0 mM", "value": "100 % of control on PLYS"},
      {"measurement": "Spreading on: CNS (% of control on PLYS)", "setting": "C6 cells; inhibitor 1.0 mM, CNS myelin", "value": "45 % of control on PLYS"},
      {"measurement": "Inhibition on CNS (%)", "setting": "C6 cells; [1]", "value": 55, "unit": "%"},
      {"measurement": "effect on the C6 plasma membrane effect (neutralization of CNS myelin inhibitory activity)", "setting": "3T3 cells", "value": "completely blocked"}
    ]},
    {"molecule": "CC(=O)N[C@@H](CC(C)C)C(=O)N[C@@H](CC(C)C)C(=O)N[C@H](C=O)CCCNC(=N)N", "note": "[leupeptine]", "values": [
      {"measurement": "Spreading on: PLYS (% of control on PLYS)", "setting": "C6 cells; inhibitor 0.3 mM", "value": "91 % of control on PLYS"},
      {"measurement": "Spreading on: CNS (% of control on PLYS)", "setting": "C6 cells; inhibitor 0.3 mM, CNS myelin", "value": "83 % of control on PLYS"},
      {"measurement": "Inhibition on CNS (%)", "setting": "C6 cells; [2]", "value": 8, "unit": "%"},
      {"measurement": "effect on the C6 plasma membrane effect (neutralization of CNS myelin inhibitory activity)", "setting": "3T3 cells", "value": "did not inhibit this effect"}
    ]},
    {"molecule": "CC(C)C[C@H](NP(=O)(O)O[C@@H]1O[C@@H](C)[C@H](O)[C@@H](O)[C@H]1O)C(=O)N[C@@H](Cc1c[nH]c2ccccc12)C(=O)O", "note": "[phosphoramidon]", "values": [
      {"measurement": "activity at 300 µM", "setting": "C6 cells; [3]", "value": 91, "unit": "%"},
      {"measurement": "inhibition at 300 µM", "setting": "C6 cells; [2]", "value": 9, "unit": "%"},
      {"measurement": "effect on C6 cell spreading on CNS myelin", "setting": "C6 cells", "value": "did not impair C6 cell spreading"}
    ]},
    {"molecule": "CC(C)CC(=O)N[C@H](C(=O)N[C@H](C(=O)N[C@@H](CC(C)C)[C@@H](O)CC(=O)N[C@@H](C)C(=O)N[C@@H](CC(C)C)[C@@H](O)CC(=O)O)C(C)C)C(C)C", "note": "[pepstatine] (Isovaleryl-VV[Sta]A[Sta]-OH)", "values": [
      {"measurement": "activity at 300 µM", "setting": "C6 cells; inhibitor 0.3 mM, read-out: Spreading on: PLYS (% of control on PLYS)", "value": 98, "unit": "%"},
      {"measurement": "activity at 300 µM", "setting": "C6 cells; [3]", "value": 95, "unit": "%"},
      {"measurement": "inhibition at 300 µM", "setting": "C6 cells; [2]", "value": 3, "unit": "%"},
      {"measurement": "effect on the C6 plasma membrane effect (neutralization of CNS myelin inhibitory activity)", "setting": "3T3 cells", "value": "did not inhibit this effect"}
    ]},
    {"molecule": "NC(=O)CNC(=O)CNC(=O)OCc1ccccc1", "note": "[cbz-gly-gly-NH2] (Cbz-Gly-Gly-NH2)", "values": [
      {"measurement": "Spreading on: CNS (% of control on PLYS)", "setting": "C6 cells; inhibitor 1.0 mM, CNS myelin", "value": "99 % of control on PLYS"},
      {"measurement": "Inhibition on CNS (%)", "setting": "C6 cells; [1]", "value": 1, "unit": "%"}
    ]},
    {"molecule": "CC(C)C[C@H](NC(=O)[C@@H](O)[C@H](N)Cc1ccccc1)C(=O)O", "note": "[bestatine]", "values": [
      {"measurement": "effect on C6 cell spreading on CNS myelin", "setting": "C6 cells", "value": "did not impair C6 cell spreading"},
      {"measurement": "Inhibition on CNS (%)", "setting": "C6 cells; inhibitor 0.1 mM", "value": 0, "unit": "%"},
      {"measurement": "Spreading on: CNS (% of control on PLYS)", "setting": "C6 cells; inhibitor 0.1 mM, CNS myelin", "value": "104 % of control on PLYS"}
    ]},
    {"molecule": "B1", "values": [
      {"measurement": "Spreading on: PLYS (% of control on PLYS)", "setting": "C6 cells; inhibitor 3.0 μM", "value": "70 % of control on PLYS"},
      {"measurement": "Spreading on: CNS (% of control on PLYS)", "setting": "C6 cells; inhibitor 3.0 μM, CNS myelin", "value": "52 % of control on PLYS"},
      {"measurement": "Inhibition on CNS (%)", "setting": "C6 cells; inhibitor 3.0 μM, PLYS value minus CNS myelin value", "value": 18, "unit": "%"}
    ]}
  ]
}
